Molecular target: T1, human PTH1 receptor (Homo sapiens, UniProt Q03431)
T1 sequence (Q03431 27-593): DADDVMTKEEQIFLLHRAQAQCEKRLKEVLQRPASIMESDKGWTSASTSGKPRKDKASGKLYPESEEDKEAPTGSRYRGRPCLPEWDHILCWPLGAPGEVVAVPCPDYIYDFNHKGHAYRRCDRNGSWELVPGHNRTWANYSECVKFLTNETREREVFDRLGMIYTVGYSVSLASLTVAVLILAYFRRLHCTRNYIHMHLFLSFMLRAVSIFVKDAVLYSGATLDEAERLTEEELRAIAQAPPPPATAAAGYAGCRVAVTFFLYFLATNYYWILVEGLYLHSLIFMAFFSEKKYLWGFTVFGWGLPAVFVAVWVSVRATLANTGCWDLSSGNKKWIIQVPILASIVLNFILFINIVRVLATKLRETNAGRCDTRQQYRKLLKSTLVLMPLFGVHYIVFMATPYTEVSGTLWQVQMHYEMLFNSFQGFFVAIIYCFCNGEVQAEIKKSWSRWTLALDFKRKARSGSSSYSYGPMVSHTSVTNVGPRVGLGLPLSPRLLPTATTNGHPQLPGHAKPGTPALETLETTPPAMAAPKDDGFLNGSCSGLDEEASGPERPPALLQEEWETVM
Experiment: In vitro cAMP signal activity in HKRK-B7 cells (LLC-PK1 cells overexpressing the human PTH1 receptor)
Format: cell-based
Settings: HKRK-B7 cells; compound at 1×10^−3 M; cAMP produced as percentage of that produced by hPTH(1-34) at 100 nM

SMILES	cAMP production activity (%)
Cc1cc(N(C)c2ncc[nH]2)cc(C)c1CCS(=O)(=O)N1CCC2(CC1)N=C(C1CCC(C)CC1)NC2=O (centres unmarked) [Compound 868, 8-(2-{4-[(1H-imidazol-2-yl)-methyl-amino]-2,6-dimethyl-phenyl}-ethanesulfonyl)-2-(4-methyl-cyclohexyl)-1,3,8-triaza-spiro[4.5]dec-1-en-4-one]	77
CC(=O)N(C)Cc1cc(C)c(/C=C/S(=O)(=O)N2CCC3(CC2)N=C(C2CCC(CCC(F)(F)F)CC2)NC3=O)c(C)c1 (centres unmarked) [Compound 559, N-[3,5-dimethyl-4-((E)-2-{4-oxo-2-[4-(3,3,3-trifluoro-propyl)-cyclohexyl]-1,3,8-triaza-spiro[4.5]dec-1-ene-8-sulfonyl}-vinyl)-benzyl]-N-methyl-acetamide]	72
Cc1cc(C(=O)N2CCC(C)(O)CC2)cc(C)c1/C=C/S(=O)(=O)N1CCC2(CC1)N=C(c1ccc(OCC(F)(F)F)c(C(F)(F)F)c1)NC2=O [Compound 1200, 8-{(E)-2-[4-(4-hydroxy-4-methyl-piperidine-1-carbonyl)-2,6-dimethyl-phenyl]-ethenesulfonyl}-2-[4-(2,2,2-trifluoro-ethoxy)-3-trifluoromethyl-phenyl]-1,3,8-triaza-spiro[4.5]dec-1-en-4-one]	73
CCCc1cc2ccc(C3=NC4(CCN([S@TB18](=O)(=O)/C=C/c5c(C)cc(N(C)C(N)=O)cc5C)CC4)C(=O)N3)cc2o1 [Compound 1127, 1-(3,5-dimethyl-4-{(E)-2-[4-oxo-2-(2-propyl-benzofuran-6-yl)-1,3,8-triaza-spiro[4.5]dec-1-ene-8-sulfonyl]-vinyl}-phenyl)-1-methyl-urea]	91
O=C1NC(C2CCC(CCC(F)(F)F)CC2)=NC12CCN(S(=O)(=O)CCc1cccc3c1ccn3CCOC[C@@H](O)CO)CC2 (stereo partly drawn) [Compound 822, 8-(2-{1-[2-((S)-2,3-dihydroxy-propoxy)-ethyl]-1H-indol-4-yl}-ethanesulfonyl)-2-[4-(3,3,3-trifluoro-propyl)-cyclohexyl]-1,3,8-triaza-spiro[4.5]dec-1-en-4-one]	99
Cc1cc(N(C)C(N)=O)cc(C)c1CCS(=O)(=O)N1CCC2(CC1)N=C(C1CCC(C)C1)NC2=O (centres unmarked) [Compound 1055, 1-(3,5-dimethyl-4-{2-[2-(3-methyl-cyclopentyl)-4-oxo-1,3,8-triaza-spiro[4.5]dec-1-ene-8-sulfonyl]-ethyl}-phenyl)-1-methyl-urea]	84
Cc1cc(S(=O)(=O)NCC(F)(F)F)ccc1CCS(=O)(=O)N1CCC2(CC1)N=C(c1cccc(C(F)(F)F)c1)NC2=O [Compound 290, 3-methyl-4-{2-[4-oxo-2-(3-trifluoromethyl-phenyl)-1,3,8-triaza-spiro[4.5]dec-1-ene-8-sulfonyl]-ethyl}-N-(2,2,2-trifluoro-ethyl)-benzenesulfonamide]	76
Cc1cc(C(=O)N2CCC(O)CC2)cc(C)c1CCS(=O)(=O)N1CCC2(CC1)N=C(c1ccc(F)c(C(F)(F)F)c1)NC2=O [Compound 797, 2-(4-fluoro-3-trifluoromethyl-phenyl)-8-{2-[4-(4-hydroxy-piperidine-1-carbonyl)-2,6-dimethyl-phenyl]-ethanesulfonyl}-1,3,8-triaza-spiro[4.5]dec-1-en-4-one]	88
CCCCC1CCC(C2=NC3(CCN(S(=O)(=O)CCc4c(C)cc(N5C(=O)CNC5=O)cc4C)CC3)C(=O)N2)CC1 (centres unmarked) [Compound 677, 3-(4-{2-[2-(4-Butyl-cyclohexyl)-4-oxo-1,3,8-triaza-spiro[4.5]dec-1-ene-8-sulfonyl]-ethyl}-3,5-dimethyl-phenyl)-imidazolidine-2,4-dione]	69
Cc1cc(N(C)C(N)=O)cc(C)c1CCS(=O)(=O)N1CCC2(CC1)N=C(CCCCCCCCCC(=O)O)NC2=O [Compound 1362, 10-(8-{2-[2,6-dimethyl-4-(1-methyl-ureido)-phenyl]-ethanesulfonyl}-4-oxo-1,3,8-triaza-spiro[4.5]dec-1-en-2-yl)-decanoic acid]	48
Cc1cc(S(=O)(=O)NCCCO)ccc1/C=C/S(=O)(=O)N1CCC2(CC1)N=C(c1cccc(OC(F)(F)F)c1)NC2=O [Compound 224, N-(3-Hydroxy-propyl)-3-methyl-4-{(E)-2-[4-oxo-2-(3-trifluoromethoxy-phenyl)-1,3,8-triaza-spiro[4.5]dec-1-ene-8-sulfonyl]-vinyl}-benzenesulfonamide]	54
O=C1NC(C2CCCCC2)=NC12CCN(S(=O)(=O)/C=C/c1c(F)cccc1C(F)(F)F)CC2 [Compound 183, 2-cyclohexyl-8-[(E)-2-(2-fluoro-6-trifluoromethyl-phenyl)-ethenesulfonyl]-1,3,8-triaza-spiro[4.5]dec-1-en-4-one]	68
CCOC(=O)CCCCCCCCCCCC1=NC2(CCN(S(=O)(=O)CCc3c(C)cc(N(C)C(N)=O)cc3C)CC2)C(=O)N1 [Compound 1347, 12-(8-{2-[2,6-dimethyl-4-(1-methyl-ureido)-phenyl]-ethanesulfonyl}-4-oxo-1,3,8-triaza-spiro[4.5]dec-1-en-2-yl)-dodecanoic acid ethyl ester]	87
O=C1NC(c2cccc(C(F)(F)F)c2)=NC12CCN(S(=O)(=O)/C=C/c1ccc(NCCO)cc1C(F)(F)F)CC2 [Compound 211, 8-{(E)-2-[4-(2-hydroxy-ethylamino)-2-trifluoromethyl-phenyl]-ethenesulfonyl}-2-(3-trifluoromethyl-phenyl)-1,3,8-triaza-spiro[4.5]dec-1-en-4-one]	60
Cc1cc(S(=O)(=O)NC(CO)(CO)CO)ccc1/C=C/S(=O)(=O)N1CCC2(CC1)N=C(c1cccc(C(F)(F)F)c1)NC2=O [Compound 595, N-(2-hydroxy-1,1-bis-hydroxymethyl-ethyl)-3-methyl-4-{(E)-2-[4-oxo-2-(3-trifluoromethyl-phenyl)-1,3,8-triaza-spiro[4.5]dec-1-ene-8-sulfonyl]-vinyl}-benzenesulfonamide]	63
CC(=O)Nc1ccc(CCS(=O)(=O)N2CCC3(CC2)N=C(c2cccc(C)c2)NC3=O)c(C)c1 [Compound 145, N-{3-Methyl-4-[2-(4-oxo-2-m-tolyl-1,3,8-triaza-spiro[4.5]dec-1-ene-8-sulfonyl)-ethyl]-phenyl}-acetamide]	129
CC(=O)Nc1ccc(CCS(=O)(=O)N2CCC3(CC2)N=C(Nc2ccc(C(F)(F)F)cc2)NC3=O)c(C)c1 [Compound 1401, N-(3-Methyl-4-{2-[4-oxo-2-(4-trifluoromethyl-phenylamino)-1,3,8-triaza-spiro[4.5]dec-1-ene-8-sulfonyl]-ethyl}-phenyl)-acetamide]	73
Cc1cc(OC[C@H](O)CO)cc(C)c1/C=C/S(=O)(=O)N1CCC2(CC1)N=C(c1ccc(F)c(OC(F)(F)F)c1)NC2=O [Compound 1164, 8-{(E)-2-[4-((R)-2,3-Dihydroxy-propoxy)-2,6-dimethyl-phenyl]-ethenesulfonyl}-2-(4-fluoro-3-trifluoromethoxy-phenyl)-1,3,8-triaza-spiro[4.5]dec-1-en-4-one]	4.7
O=C1NC(CCCCCCCC(F)(F)C(F)(F)F)=NC12CCN(S(=O)(=O)CCc1cccc3c1ccn3C[C@H](O)CO)CC2 [Compound 788, 8-{2-[1-((S)-2,3-dihydroxy-propyl)-1H-indol-4-yl]-ethanesulfonyl}-2-(8,8,9,9,9-pentafluoro-nonyl)-1,3,8-triaza-spiro[4.5]dec-1-en-4-one]	142
O=C1NC(C2CCCN(S(=O)(=O)Cc3ccccc3)C2)=NC12CCN(S(=O)(=O)c1cccc(Cl)c1)CC2 (centres unmarked) [Compound 42, 8-(3-chloro-benzenesulfonyl)-2-(1-phenylmethanesulfonyl-piperidin-3-yl)-1,3,8-triaza-spiro[4.5]dec-1-en-4-one]	27
CC(=O)N(CCOCCF)c1ccc(/C=C/S(=O)(=O)N2CCC3(CC2)N=C(C2CCC(CCC(F)(F)F)CC2)NC3=O)c(C)c1 (centres unmarked) [Compound 545, N-[2-(2-fluoro-ethoxy)-ethyl]-N-[3-methyl-4-((E)-2-{4-oxo-2-[4-(3,3,3-trifluoro-propyl)-cyclohexyl]-1,3,8-triaza-spiro[4.5]dec-1-ene-8-sulfonyl}-vinyl)-phenyl]-acetamide]	86
CC(C)=C1CCC(C2=NC3(CCN(S(=O)(=O)CCc4c(C)cc(N(C)C(N)=O)cc4C)CC3)C(=O)N2)CC1 (centres unmarked) [Compound 1310, 1-(4-{2-[2-(4-isopropylidene-cyclohexyl)-4-oxo-1,3,8-triaza-spiro[4.5]dec-1-ene-8-sulfonyl]-ethyl}-3,5-dimethyl-phenyl)-1-methyl-urea]	104
Cc1cc(N(C)C(N)=O)cc(C)c1CCS(=O)(=O)N1CCC2(CC1)N=C(CCCCCCCCCO)NC2=O [Compound 1322, 1-(4-{2-[2-(9-Hydroxy-nonyl)-4-oxo-1,3,8-triaza-spiro[4.5]dec-1-ene-8-sulfonyl]-ethyl}-3,5-dimethyl-phenyl)-1-methyl-urea]	80

Source: patent US9169254B2, “Spiroimidazolone derivative” (Chugai Seiyaku Kabushiki Kaisha, priority 2009, dated 2015)
